Patent US6737383B1, “Herbicidal oxadiazolidines” (priority 1999, dated 2004)

How the values were obtained:
common poppy = assay: Test E common poppy; type: in vivo, Papaver rhoeas; conditions: Postemergence
Protocol: (§1) Compounds evaluated in this test were formulated in a non-phytotoxic solvent mixture which included a surfactant and applied to plants that were in the 1- to 4-leaf stage (postemergence application). A mixture of sandy loam soil and greenhouse potting mix in a 60:40 ratio was used for the postemergence test.
(§2) Plantings of these crops and weed species were adjusted to produce plants of appropriate size for the postemergence test. All plant species were grown using normal greenhouse practices. Crop and weed species include annual bluegrass (Poa annua), blackgrass (Alopecurus myosuroides), black nightshade (Solanum nigra), chickweed (Stellaria media), common poppy (Papaver rhoeas), deadnettle (Lamium amplexicaule), downy brome (Bromus tectorum), field violet (Viola arvensis), galium (Galium aparine), green foxtail (Setaria viridis), Italian ryegrass (Lolium multiflorum), jointed goatgrass (Aegilops cylindrica), kochia (Kochia scoparia), lambsquarters (Chenopodium album), littleseed canarygrass (Phalaris minor), rape (Brassica napus), redroot pigweed (Amaranthus retroflexus), Russian thistle (Salsola kali), scentless chamomile (Matricaria inodora), spring barley (Hordeum vulgare), sugar beet (Beta vulgaris), sunflower (Helianthus annuus), ivyleaf speedwell (Veronica hederaefolia), spring wheat (Triticum aestivum), winter wheat (Triticum aestivum), wild buckwheat (Polygonum convolvulus), wild mustard (Sinapis arvensis), wild oat (Avena fatua), windgrass (Apera spica-venti) and winter barley (Hordeum vulgare).
(§3) Treated plants and untreated controls were maintained in a greenhouse for approximately 21 to 28 days, after which all treated plants were compared to untreated controls and visually evaluated. […] A dash response (-) means no test result.

fall panicum = assay: Test C postemergence fall panicum; type: in vivo, Panicum dichotomiflorum; conditions: 0 to 100 scale, 0 no effect, 100 complete control
Summary of the method: (§4)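 Visual ratings on a 0 to 100 scale, where 0 means no effect and 100 complete control, were made versus untreated controls roughly 14 to 21 days after postemergence treatment. Test compounds were formulated in a non-phytotoxic solvent mixture containing a surfactant.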

deadnettle = assay: Test E deadnettle; type: in vivo, Lamium amplexicaule; conditions: Preemergence
ivyleaf morningglory = assay: Test C postemergence ivyleaf morningglory; type: in vivo, Ipomoea hederacea; conditions: 0 to 100 scale, 0 no effect, 100 complete control
Summary of the method: as §4

spring wheat = assay: Test E spring wheat; type: in vivo, Triticum aestivum; conditions: Preemergence
arrowleaf sida = assay: Test C postemergence arrowleaf sida; type: in vivo, Sida rhombifolia; conditions: 0 to 100 scale, 0 no effect, 100 complete control
Summary of the method: as §4

redroot pigweed = assay: Test E redroot pigweed; type: in vivo, Amaranthus retroflexus; conditions: Postemergence
Protocol: as §1, §2, §3

black nightshade [1] = assay: Test E black nightshade; type: in vivo, Solanum nigra; conditions: Preemergence
field violet = assay: Test E field violet; type: in vivo, Viola arvensis; conditions: Preemergence
Russian thistle = assay: Test E Russian thistle; type: in vivo, Salsola kali; conditions: Postemergence
Summary of the method: (§5)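 Visual evaluation versus untreated controls after about 21 to 28 days in the greenhouse. Compound was in a surfactant-containing non-phytotoxic solvent; postemergence plants were treated at the 1- to 4-leaf stage, grown in a 60:40 sandy loam and potting mix blend.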

barnyardgrass = assay: Test C postemergence barnyardgrass; type: in vivo, Echinochloa crus-galli; conditions: 0 to 100 scale, 0 no effect, 100 complete control
Protocol: (§6) Compounds evaluated in this test were formulated in a non-phytotoxic solvent mixture which included a surfactant and applied to plants that were grown for various periods of time before treatment (postemergence application). A mixture of sandy loam soil and greenhouse potting mix in a 60:40 ratio was used for the postemergence test.
(§7) Plantings of these crops and weed species were adjusted to produce plants of appropriate size for the postemergence test. All plant species were grown using normal greenhouse practices. Crop and weed species include arrowleaf sida (Sida rhombifolia), barnyardgrass (Echinochloa crus-galli), cocklebur (Xanthium strumarium), common ragweed (Ambrosia elatior), corn (Zea mays), cotton (Gossypium hirsutum), eastern black nightshade (Solanum ptycanthum), fall panicum (Panicum dichotomiflorum), field bindweed (Convolvulus arvensis), giant foxtail (Setaria faberii), hairy beggarticks (Bidens pilosa), ivyleaf morningglory (Ipomoea hederacea), johnsongrass (Sorghum halepense), ladysthumb smartweed (Polygonum persicaria), lambsquarters (Chenopodium album), large crabgrass (Digitaria sanguinalis), purple nutsedge (Cyperus rotundus), redroot pigweed (Amaranthus retroflexus), soybean (Glycine max), surinam grass (Brachiaria decumbens), velvetleaf (Abutilon theophrasti) and wild poinsettia (Euphorbia heterophylla).
(§8) Treated plants and untreated controls were maintained in a greenhouse for approximately 14, to 21 days, after which all treated plants were compared to untreated controls and visually evaluated. Plant response ratings, summarized in Table C, were based upon a 0 to 100 scale where 0 was no effect and 100 was complete control. A dash response (−) means no test result.

green foxtail = assay: Test E green foxtail; type: in vivo, Setaria viridis; conditions: Postemergence
Summary of the method: as §5

blackgrass = assay: Test E blackgrass; type: in vivo, Alopecurus myosuroides; conditions: Postemergence
Summary of the method: as §5

cotton = assay: Test C postemergence cotton; type: in vivo, Gossypium hirsutum; conditions: 0 to 100 scale, 0 no effect, 100 complete control
Protocol: as §6, §7, §8

spring barley = assay: Test E spring barley; type: in vivo, Hordeum vulgare; conditions: Postemergence
Protocol: as §1, §2, §3

wild poinsettia = assay: Test C postemergence wild poinsettia; type: in vivo, Euphorbia heterophylla; conditions: 0 to 100 scale, 0 no effect, 100 complete control
Summary of the method: as §4

black nightshade [2] = assay: Test E black nightshade; type: in vivo, Solanum nigra; conditions: Postemergence
Summary of the method: as §5

[3] = Rate 250 g/ha, 0 to 100 scale (0 no effect, 100 complete control)
[4] = Rate 500 g/ha, 0 to 100 scale, 0 no effect, 100 complete control
[5] = Rate 125 g/ha, 0 to 100 scale (0 no effect, 100 complete control)
[6] = Rate 500 g/ha, 0 to 100 scale where 0 is no effect and 100 is complete control

In the case of `CCn1c(=O)on(C(=O)N(c2ccc(F)cc2F)C(C)C)c1=O` [Compound 116], the “Plant response rating, Common poppy” value (common poppy; Rate 62 g/ha, 0 to 100 scale) is reported as 30, the “Plant response rating, Comnion poppy” value (common poppy; Rate 125 g/ha, 0 to 100 scale) is reported as 0 and the “Plant response rating, Common poppy” value (common poppy; [3]) is reported as 0. For the same compound, the “Plant response rating, Common poppy” value (common poppy; [4]) was 10, the “Plant response rating Fall panicum” value (fall panicum; Rate 140 g/ha) was 10 and the “Plant response rating Fall panicum” value (fall panicum; Rate 280 g/ha) was 60. For the same compound, the “Plant response rating Fall panicum” value (fall panicum; Rate 560 g/ha) was 85, the “Plant response rating Fall panicum” value (fall panicum; Rate 1120 g/ha) was 90 and the “Plant response rating, Deadnettle” value (deadnettle; [5]) was 95. The “Plant response rating, Deadnettle” value (deadnettle; Rate 250 g/ha, 0 to 100 scale) was 80, the “Plant response rating, Deadnettle” value (deadnettle; [6]) was 80 and the “Plant response rating I. morningglory” value (ivyleaf morningglory; Rate 140 g/ha) was 0. The “Plant response rating I. morningglory” value (ivyleaf morningglory; Rate 280 g/ha) was 0, the “Plant response rating I. morningglory” value (ivyleaf morningglory; Rate 560 g/ha) was 0 and the “Plant response rating I. morningglory” value (ivyleaf morningglory; Rate 1120 g/ha) was 20. For the same compound, the “Plant response rating, Spring Wheat” value (spring wheat; [5]) was 15, the “Plant response rating, Spring Wheat” value (spring wheat; Rate 250 g/ha, 0 to 100 scale) was 80 and the “Plant response rating, Spring Wheat” value (spring wheat; [6]) was 100. For the same compound, the “Plant response rating Arrowleaf sida” value (arrowleaf sida; Rate 140 g/ha) was 0, the “Plant response rating Arrowleaf sida” value (arrowleaf sida; Rate 560 g/ha) was 85 and the “Plant response rating Arrowleaf sida” value (arrowleaf sida; Rate 1120 g/ha) was 90. The “Plant response rating, Redroot pigweed” value (redroot pigweed; Rate 62 g/ha, 0 to 100 scale) was 0, the “Plant response rating, Redroot pigweed” value (redroot pigweed; Rate 125 g/ha, 0 to 100 scale) was 0 and the “Plant response rating, Redroot pigweed” value (redroot pigweed; [3]) was 0. For the same compound, the “Plant response rating, Redroot pigweed” value (redroot pigweed; [4]) was 0, the “Plant response rating, Blk nightshade” value (black nightshade [1]; [5]) was 80 and the “Plant response rating, Blk nightshade” value (black nightshade [1]; Rate 250 g/ha, 0 to 100 scale) was 90. For the same compound, the “Plant response rating, Blk nightshade” value (black nightshade [1]; [6]) was 100, the “Plant response rating, Field violet” value (field violet; [5]) was 50 and the “Plant response rating, Field violet” value (field violet; Rate 250 g/ha, 0 to 100 scale) was 40. For the same compound, the “Plant response rating, Field violet” value (field violet; [6]) was 90, the “Plant response rating, Russian thistle” value (Russian thistle; Rate 62 g/ha, 0 to 100 scale) was 40 and the “Plant response rating, Russian thistle” value (Russian thistle; Rate 125 g/ha, 0 to 100 scale) was 0. For the same compound, the “Plant response rating, Russian thistle” value (Russian thistle; [3]) was 0, the “Plant response rating, Russian thistle” value (Russian thistle; [4]) was 0 and the “Plant response rating, Barnyardgrass” value (barnyardgrass; Rate 140 g/ha) was 55. The “Plant response rating, Barnyardgrass” value (barnyardgrass; Rate 280 g/ha) was 85, the “Plant response rating, Barnyardgrass” value (barnyardgrass; Rate 560 g/ha) was 90 and the “Plant response rating, Barnyardgrass” value (barnyardgrass; Rate 1120 g/ha) was 90. The “Plant response rating, Green foxtail” value (green foxtail; Rate 62 g/ha, 0 to 100 scale) was 20, the “Plant response rating, Green foxtail” value (green foxtail; Rate 125 g/ha, 0 to 100 scale) was 70 and the “Plant response rating, Green foxtail” value (green foxtail; [3]) was 75. The “Plant response rating, Green foxtail” value (green foxtail; [4]) was 75, the “Plant response rating, Blackgrass” value (blackgrass; Rate 62 g/ha, 0 to 100 scale) was 0 and the “Plant response rating, Blackgrass” value (blackgrass; Rate 125 g/ha, 0 to 100 scale) was 40. For the same compound, the “Plant response rating, Blackgrass” value (blackgrass; [3]) was 80, the “Plant response rating, Blackgrass” value (blackgrass; [4]) was 80 and the “Plant response rating Cotton” value (cotton; Rate 140 g/ha) was 10. The “Plant response rating Cotton” value (cotton; Rate 280 g/ha) was 50, the “Plant response rating Cotton” value (cotton; Rate 560 g/ha) was 50 and the “Plant response rating, Spring Barley” value (spring barley; Rate 62 g/ha, 0 to 100 scale) was 5. The “Plant response rating, Spring Barley” value (spring barley; Rate 125 g/ha, 0 to 100 scale) was 0, the “Plant response rating, Spring Barley” value (spring barley; [3]) was 10 and the “Plant response rating, Spring Barley” value (spring barley; [4]) was 0. The “Plant response rating Wild poinsettia” value (wild poinsettia; Rate 140 g/ha) was 0, the “Plant response rating Wild poinsettia” value (wild poinsettia; Rate 280 g/ha) was 0 and the “Plant response rating Wild poinsettia” value (wild poinsettia; Rate 560 g/ha) was 0. For the same compound, the “Plant response rating, Blk nightshade” value (black nightshade [2]; Rate 62 g/ha, 0 to 100 scale) was 10, the “Plant response rating, Blk nightshade” value (black nightshade [2]; Rate 125 g/ha, 0 to 100 scale) was 50 and the “Plant response rating, Blk nightshade” value (black nightshade [2]; [3]) was 50. For the same compound, the “Plant response rating, Blk nightshade” value (black nightshade [2]; [4]) was 60.
